The record followed here is patent US20120214862A1, “MODULATION OF FACTOR 7 EXPRESSION” (ISIS Pharmaceuticals, Inc., priority 2009, published 2012).

In the oligonucleotide strings, read from the 5' end, every base follows the letter of its sugar. An asterisk marks phosphorothioate; unmarked linkages are phosphodiester. Other units and linkages are bracketed, terminal groups are in braces. A string of capitals states the bases alone. e = 2'-O-(2-methoxyethyl) (MOE); [5mC] = 5-methylcytosine; d = 2'-deoxy (DNA)

In series [1] the test system is human Factor 7 mRNA. Briefly: Dose-dependent antisense inhibition of human Factor 7 in HepB3 cells, transfection with electroporation. Format: cell-based. The procedure, abridged:
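HepB3 cells, 20,000/well, electroporated with gapmers at 3.125–100 μM; about 16 h treatment. Factor 7 mRNA by qRT-PCR with primer probe set RTS 2927, normalized to RIBOGREEN total RNA; percent inhibition versus untreated cells.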

The subject of series [2] is human Factor 7 mRNA. The series can be described thus: Antisense inhibition of human Factor 7 mRNA in HepB3 cells, lipofectin, 50 nM, real-time RT-PCR. It counts as cell-based. Particulars: HepB3 cells; for % Inhibition (human Factor 7 mRNA): Example 1, 50 nM, ~24 h, relative to untreated control cells. The procedure, abridged: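 HepB3 cells were transfected by lipofectin with 50 nM antisense oligonucleotide and harvested after about 24 h. Factor 7 mRNA was measured by real-time RT-PCR (primer probe set RTS 2927 in some runs), normalized to RIBOGREEN total RNA, and reported as percent inhibition versus untreated control.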
On the technique in general: In qPCR the cycle at which signal appears reflects the starting amount.

Where [3] appears, read: 3.125 μM, 16 hours (Example 7, Table 15).
[4] abbreviates: 3.125 μM, 16 hours (Example 8, Table 16).
Where [5] appears, read: 6.25 μM, 16 hours (Example 7, Table 15).
Setting [6] is: 6.25 μM, 16 hours (Example 8, Table 16).
[7] abbreviates: 12.5 μM, 16 hours (Example 7, Table 15).
The mark [8] stands for this setting: 12.5 μM, 16 hours (Example 8, Table 16).
The mark [9] stands for this setting: 25 μM, 16 hours (Example 7, Table 15).
Setting [10] is: 25 μM, 16 hours (Example 8, Table 16).
Where [11] appears, read: 50 μM, 16 hours (Example 7, Table 15).
The mark [12] stands for this setting: 50 μM, 16 hours (Example 8, Table 16).
The mark [13] stands for this setting: 100 μM, 16 hours (Example 7, Table 15).
[14] abbreviates: 100 μM, 16 hours (Example 8, Table 16).
[15] abbreviates: lipofectin, 50 nM antisense oligonucleotide, approximately 24 hours, primer probe set RTS 2927, relative to untreated control.

Turning to “407935 (antisense eA*eT*eG*e[5mC]*eA*dT*dG*dG*dT*dG*dA*dT*dG*d[5mC]*dT*eT*e[5mC]*eT*eG*eA) [compound 407935]”, the “percent inhibition of Factor 7 mRNA, relative to untreated control cells” value was found to be 37% in series [1] (setting [3]); 63% in series [1] (setting [4]); 47% in series [1] (setting [5]); 79% in series [1] (setting [6]); 67% in series [1] (setting [7]); 84% in series [1] (setting [8]). Besides, the “percent inhibition of Factor 7 mRNA, relative to untreated control cells” value in series [1] (setting [9]) was determined as 73%; in series [1] (setting [10]), 90%; in series [1] (setting [11]), 80%; in series [1] (setting [12]), 90%; in series [1] (setting [13]), 87%; in series [1] (setting [14]), 91%. For the same substance, the “% Inhibition (human Factor 7 mRNA)” value in series [2] (lipofectin) is 94%. Besides, the “% Inhibition of human Factor 7 mRNA levels” value in series [2] (setting [15]) turned out to be 72%; in series [2] (gapmers targeted to nucleobases 15188 to 15211 of SEQ ID NO: 1 (Table 13)), 79%.

Turning to “407939 (antisense eT*eG*e[5mC]*eA*eG*d[5mC]*d[5mC]*d[5mC]*dG*dG*d[5mC]*dA*d[5mC]*d[5mC]*d[5mC]*eA*eG*e[5mC]*eG*eA) [compound 407939]”, the “percent inhibition of Factor 7 mRNA, relative to untreated control cells” value in series [1] (setting [3]) came to 18%; in series [1] (setting [4]), 35%; in series [1] (setting [5]), 28%; in series [1] (setting [6]) it was 60%; in series [1] (setting [7]) it was 42%; in series [1] (setting [8]), 60%. For the same substance, the “percent inhibition of Factor 7 mRNA, relative to untreated control cells” value in series [1] (setting [9]) is given as 56%; in series [1] (setting [10]) it was 73%; in series [1] (setting [11]), 68%; in series [1] (setting [12]), 81%; in series [1] (setting [13]), 82%; in series [1] (setting [14]) it was 83%. In addition, in series [2] (lipofectin), the “% Inhibition (human Factor 7 mRNA)” value is 93%. The “% Inhibition of human Factor 7 mRNA levels” value in series [2] (setting [15]) was 76%.
